Assay results as given in US6649793B1, “Process for the preparation of a N,N-diamino amino acid-β-hydroxy disuccinic acid” (Board of Trustees of Michigan State University, priority 2002, dated 2003).

Experiment: Potentiometric calcium titration with calcium-selective electrode (calcium binding / chelation)
Type: physicochemical
Conditions: Ca2+ binding; 50 mL of 200 ppm hardness solution at 25° C.; NH4Cl/NH4OH buffer pH=9.5, ionic strength 0.1M
Description: Calcium chloride dihydrate was purchased from Fisher Scientific. A stock solution of 0.01M […] (1000 ppm, hardness CaCO3) was prepared with distilled deionized water, and 0.03M NH4Cl/0.07M NH4OH buffer (pH=9.5, ionic strength of 0.1M). The later chemicals were obtained from Columbus Chemical Industries, Inc. Standard solution ranging from 200 ppm to 10 ppm was prepared by dilution of the stock solution with the buffer. A plot of the logarithm of calcium ion concentration vs the normalized potential was constructed prior to each titration (Rechnitz, G. A., et al., Anal. Chem. 40 696 (1968); and Nagarajan, M. K., et al., JAOCS 61 1475 (1984)). This was necessary to minimize the effect of signal fluctuations due to solution condition (ionic strength, pH, and the like). […]
The electrode was immersed in a 50 mL of 200 ppm hardness solution at 25° C., and the meter reading was taken while the solution was being stirred by magnet (Blay, J. A., et al., Anal. Lett. 4, 653 (1971)). The calcium binding solution of Compound II was added in small increments and the equilibrium-free calcium ion concentration were measured. When the meter reading indicated less than 10 ppm present in solution, the titration was stopped. […] Chelation constant (logK) of compound II was determined to be 4.23±0.09 according to the following equation [formula] […]

O=C(O)C(O)C(NCCCC[C@H](NC(C(=O)O)C(O)C(=O)O)C(=O)O)C(=O)O (stereo partly drawn) [compound II, 2N,6N-lysine-β-hydroxy disuccinic acid]
Chelation constant (logK): 4.23±0.09
